These results are taken from patent US5081112A, “Method for treating hyperlipidemia” (Otsuka Pharmaceutical Factory Inc., priority 1986, dated 1992).

SMILES strings stand for the structures. Read-outs that look alike come from different tables or passages of the source.

In this test the test system is Triton WR-1339-induced hyperlipidemia in rat. Nature of the test: antilipotropic effect in Triton WR-1339-induced hyperlipidemia in rat. The format is in vivo, Wistar-strain male rats. Conditions: 50 mg/kg oral, vs control. The text has this:
Wistar-strain male rats of 5-9 week age were used as test animals. One test group consisting of six (6) rats.
[a] is a determined value obtained from the control group, and
[b] is a determined value obtained from the test group).

Where [1] appears, read: 24 hours after Triton WR-1339 (400 mg/kg, tail vein), read-out: lowering ratio of serum triglycerides, 24 hours after Triton WR-1339.
[2] abbreviates: 24 hours after Triton WR-1339 (400 mg/kg, tail vein), read-out: lowering ratio of total serum cholesterol, 24 hours after Triton WR-1339.
[3] abbreviates: 48 hours after Triton WR-1339 (400 mg/kg, tail vein), read-out: lowering ratio of total serum cholesterol, 48 hours after Triton WR-1339.
Setting [4] is: 48 hours after Triton WR-1339 (400 mg/kg, tail vein), read-out: lowering ratio of serum triglycerides, 48 hours after Triton WR-1339.

Turning to `CCOP(=O)(Cc1ccc(C(=O)N(C)c2ccc(Cl)cc2)cc1)OCC` [compound 14], the inhibition in vivo at 50 mg/kg is, setting by setting: under setting [1], 46%; under setting [2], 29.3%; under setting [3], 49.4%.
In the case of `CCOP(=O)(Cc1ccc(C(=O)N(Cc2ccccc2)c2ccc(C(F)(F)F)cc2)cc1)OCC` [compound 12], the inhibition in vivo at 50 mg/kg is, setting by setting: under setting [1], 60.4%; under setting [2], 36.9%; under setting [4], 83.9%.
As to `CCOP(=O)(Cc1ccc(C(=O)Nc2ccc(C#N)cc2)cc1)OCC` [compound 19], the inhibition in vivo at 50 mg/kg is, setting by setting: under setting [1], 90.5%; under setting [2], 60.6%; under setting [4], 94.7%; under setting [3], 63.6%.
Taken in the same sequence, the figures for `CCOP(=O)(Cc1ccc(C(=O)N(Cc2ccc(Cl)cc2)c2ccc(Cl)cc2)cc1)OCC` [compound 21] were 47.9%, 15.9%, 89.1% and 52.3%.
As to `CCOP(=O)(Cc1ccc(C(=O)Nc2ccc(OC)cc2)cc1)OCC` [compound 23], the inhibition in vivo at 50 mg/kg is, setting by setting: under setting [1], 25.5%; under setting [2], 17.3%; under setting [4], 27.6%; under setting [3], 32.5%.
The corresponding values for `CCOP(=O)(Cc1ccc(C(=O)N(Cc2ccc(Cl)cc2)c2ccc(Cl)c(Cl)c2)cc1)OCC` [compound 17] are 56.8%, 27.8%, 94.1% and 64.4%.
Consider `CCOP(=O)(Cc1ccc(C(=O)Nc2ccc(Cl)c(C(F)(F)F)c2)cc1)OCC` [compound 9], for which the inhibition in vivo at 50 mg/kg is 11.3% under setting [1], 11.7% under setting [2], 68.4% under setting [4] and 42.3% under setting [3].
With `CCOP(=O)(Cc1ccc(C(=O)N(c2ccc(Cl)cc2)C2CCCC2)cc1)OCC` [compound 15], the inhibition in vivo at 50 mg/kg was found to be 23% under setting [1], 9.8% under setting [2], 55.8% under setting [4] and 22.6% under setting [3].
Turning to `CCOP(=O)(Cc1ccc(C(=O)Nc2ccc(F)cc2)cc1)OCC` [compound 20], the inhibition in vivo at 50 mg/kg runs as follows: under setting [1], 57.3%; under setting [2], 27%; under setting [4], 90.5%; under setting [3], 55.1%.
Taken in the same sequence, the figures for `CCOP(=O)(Cc1ccc(C(=O)Nc2ccc(I)cc2)cc1)OCC` [compound 16] were 94.1%, 64%, 95.3% and 75.1%.
On to `CCOP(=O)(Cc1ccc(C(=O)Nc2ccc([N+](=O)[O-])cc2)cc1)OCC` [compound 18], for which the inhibition in vivo at 50 mg/kg reads like this: under setting [1], 54.4%; under setting [2], 32.7%; under setting [4], 74.9%; under setting [3], 37.5%.
The corresponding values for `CCOP(=O)(Cc1ccc(C(=O)Nc2ccc(C(F)(F)F)cc2)cc1)OCC` [compound 13] are 73.9%, 33.7%, 95.4% and 64.4%.
